ChEMBL document CHEMBL3885881, “DrugMatrix”
Starred links: 1 amine or outer side, 2 acyl side, 3 side chain; linkers in the order of their positions; H or OH if unused. Positions of bridges follow the written chain, without caps; N, C: chain ends. Non-standard residues stand in square brackets, D forms with d. Residues, ends and D or L forms follow the SMILES beside them. Chains are numbered I, II in the order given. Actinocin(9to1) = Cc1c2oc3c(C)ccc(C(=O)[*:1])c3nc-2c(C(=O)[*:2])c(N)c1=O; NMeV = CN[C@H](C(=O)O)C(C)C; Sar = CNCC(=O)O

Species on record: Rattus norvegicus
Test: DrugMatrix - Regimen: Daily Repeat
Type: toxicity, organism-based, Sprague-Dawley
Set-up: regimen Daily Repeat, gender Male, age 6-8 weeks
Conditions: in vivo, iv, vehicle 100 % SALINE; for ABSOLUTE BASOPHIL / ABSOLUTE EOSINOPHIL / ABSOLUTE LYMPHOCYTE / ABSOLUTE MONOCYTE / ABSOLUTE SEGMENTED NEUTROPHIL / BASOPHIL / EOSINOPHIL / ERYTHROCYTE COUNT / HEMATOCRIT / HEMOGLOBIN / LEUKOCYTE COUNT / LYMPHOCYTE / MEAN CORPUSCULAR HEMOGLOBIN / MEAN CORPUSCULAR HEMOGLOBIN CONCENTRATION / MEAN CORPUSCULAR VOLUME / MONOCYTE / NEUTROPHIL / NUCLEATED RED BLOOD CELLS / PLATELET COUNT: tissue Blood; for ALANINE AMINOTRANSFERASE / ALBUMIN / ALKALINE PHOSPHATASE / ASPARTATE AMINOTRANSFERASE / BLOOD UREA NITROGEN / CARBON DIOXIDE / CHLORIDE / CHOLESTEROL / CREATINE PHOSPHOKINASE / CREATININE / GLUCOSE / LACTATE DEHYDROGENASE / LIPASE / PHOSPHORUS / POTASSIUM / SODIUM / TOTAL BILIRUBIN / TOTAL PROTEIN / URIC ACID: tissue Plasma
[1] = 0.006 mg/kg, 120 h, dose level Low, time 5 day
[2] = 0.06 mg/kg, 72 h, dose level High, time 3 day
[3] = 0.06 mg/kg, 120 h, dose level High, time 5 day

Cc1c2oc3c(C)ccc(C(=O)N[C@@H]4C(=O)N[C@H](C(C)C)C(=O)N5CCC[C@H]5C(=O)N(C)CC(=O)N(C)[C@@H](C(C)C)C(=O)O[C@@H]4C)c3nc-2c(C(=O)N[C@@H]2C(=O)N[C@H](C(C)C)C(=O)N3CCC[C@H]3C(=O)N(C)CC(=O)N(C)[C@@H](C(C)C)C(=O)O[C@@H]2C)c(N)c1=O [DACTINOMYCIN] (I: T[dV]P[Sar][NMeV] / II: T[dV]P[Sar][NMeV]; ester I:1-I:C, II:1-II:C; linker I:N-II:N via Actinocin(9to1))
ABSOLUTE BASOPHIL [1]: 0 CELLS/uL
ABSOLUTE EOSINOPHIL [1]: 221.33 CELLS/uL
ABSOLUTE LYMPHOCYTE [1]: 12705.67 CELLS/uL
ABSOLUTE MONOCYTE [1]: 103.33 CELLS/uL
ABSOLUTE SEGMENTED NEUTROPHIL [1]: 1369.67 CELLS/uL
BASOPHIL [1]: 0%
EOSINOPHIL [1]: 1.33%
ERYTHROCYTE COUNT [1]: 5.39 x10E6/uL
HEMATOCRIT [1]: 33.7%
HEMOGLOBIN [1]: 13.67 G/DL
LEUKOCYTE COUNT [1]: 14.4 x10E3/uL
LYMPHOCYTE [1]: 88.67%
MEAN CORPUSCULAR HEMOGLOBIN [1]: 25.37 pg
MEAN CORPUSCULAR HEMOGLOBIN CONCENTRATION [1]: 40.57 G/DL
MEAN CORPUSCULAR VOLUME [1]: 62.57 fL
MONOCYTE [1]: 0.67%
NEUTROPHIL [1]: 9.33%
NUCLEATED RED BLOOD CELLS [1]: 0 /100WBC
PLATELET COUNT [1]: 1209 x10E3/uL
ALANINE AMINOTRANSFERASE [1]: 51 u/L
ALBUMIN [1]: 4.1 G/DL
ALKALINE PHOSPHATASE [1]: 297 u/L
ASPARTATE AMINOTRANSFERASE [1]: 130.67 u/L
BLOOD UREA NITROGEN [1]: 15 mg/dL
CARBON DIOXIDE [1]: 27.33 mmol/L
CHLORIDE [1]: 102 MEQ/L
CHOLESTEROL [1]: 77 mg/dL
CREATINE PHOSPHOKINASE [1]: 1455.33 u/L
CREATININE [1]: 0.22 mg/dL
GLUCOSE [1]: 155.33 mg/dL
LACTATE DEHYDROGENASE [1]: 798.33 u/L
LIPASE [1]: 10.33 u/L
PHOSPHORUS [1]: 11.03 mg/dL
POTASSIUM [1]: 5.31 MEQ/L
SODIUM [1]: 143.1 MEQ/L
TOTAL BILIRUBIN [1]: 0.17 mg/dL
TOTAL PROTEIN [1]: 6.13 G/DL
URIC ACID [1]: 1.37 mg/dL
ABSOLUTE BASOPHIL [2]: 0 CELLS/uL
ABSOLUTE EOSINOPHIL [2]: 0 CELLS/uL
ABSOLUTE LYMPHOCYTE [2]: 13952.33 CELLS/uL
ABSOLUTE MONOCYTE [2]: 166 CELLS/uL
ABSOLUTE SEGMENTED NEUTROPHIL [2]: 748.33 CELLS/uL
BASOPHIL [2]: 0%
EOSINOPHIL [2]: 0%
ERYTHROCYTE COUNT [2]: 5.81 x10E6/uL
HEMATOCRIT [2]: 35.17%
HEMOGLOBIN [2]: 13.97 G/DL
LEUKOCYTE COUNT [2]: 14.87 x10E3/uL
LYMPHOCYTE [2]: 93.67%
MEAN CORPUSCULAR HEMOGLOBIN [2]: 24.13 pg
MEAN CORPUSCULAR HEMOGLOBIN CONCENTRATION [2]: 39.8 G/DL
MEAN CORPUSCULAR VOLUME [2]: 60.7 fL
MONOCYTE [2]: 1%
NEUTROPHIL [2]: 5.33%
NUCLEATED RED BLOOD CELLS [2]: 0 /100WBC
PLATELET COUNT [2]: 1121.67 x10E3/uL
ALANINE AMINOTRANSFERASE [2]: 41.67 u/L
ALBUMIN [2]: 4.4 G/DL
ALKALINE PHOSPHATASE [2]: 262.67 u/L
ASPARTATE AMINOTRANSFERASE [2]: 85.33 u/L
BLOOD UREA NITROGEN [2]: 15.67 mg/dL
CARBON DIOXIDE [2]: 26 mmol/L
CHLORIDE [2]: 99.67 MEQ/L
CHOLESTEROL [2]: 81.33 mg/dL
CREATINE PHOSPHOKINASE [2]: 562.67 u/L
CREATININE [2]: 0.16 mg/dL
GLUCOSE [2]: 154.33 mg/dL
LACTATE DEHYDROGENASE [2]: 357.33 u/L
LIPASE [2]: 10.33 u/L
PHOSPHORUS [2]: 11.93 mg/dL
POTASSIUM [2]: 6.38 MEQ/L
SODIUM [2]: 140.17 MEQ/L
TOTAL BILIRUBIN [2]: 0.2 mg/dL
TOTAL PROTEIN [2]: 6.13 G/DL
URIC ACID [2]: 1.6 mg/dL
ABSOLUTE BASOPHIL [3]: 0 CELLS/uL
ABSOLUTE EOSINOPHIL [3]: 0 CELLS/uL
ABSOLUTE LYMPHOCYTE [3]: 13429.67 CELLS/uL
ABSOLUTE MONOCYTE [3]: 267.67 CELLS/uL
ABSOLUTE SEGMENTED NEUTROPHIL [3]: 1069.33 CELLS/uL
BASOPHIL [3]: 0%
EOSINOPHIL [3]: 0%
ERYTHROCYTE COUNT [3]: 5.63 x10E6/uL
HEMATOCRIT [3]: 35%
HEMOGLOBIN [3]: 13.77 G/DL
LEUKOCYTE COUNT [3]: 14.77 x10E3/uL
LYMPHOCYTE [3]: 90.67%
MEAN CORPUSCULAR HEMOGLOBIN [3]: 24.5 pg
MEAN CORPUSCULAR HEMOGLOBIN CONCENTRATION [3]: 39.37 G/DL
MEAN CORPUSCULAR VOLUME [3]: 62.17 fL
MONOCYTE [3]: 1.67%
NEUTROPHIL [3]: 7.67%
NUCLEATED RED BLOOD CELLS [3]: 0 /100WBC
PLATELET COUNT [3]: 1163.67 x10E3/uL
ALANINE AMINOTRANSFERASE [3]: 41 u/L
ALBUMIN [3]: 4.2 G/DL
ALKALINE PHOSPHATASE [3]: 279.33 u/L
ASPARTATE AMINOTRANSFERASE [3]: 79.33 u/L
BLOOD UREA NITROGEN [3]: 19.33 mg/dL
CARBON DIOXIDE [3]: 29 mmol/L
CHLORIDE [3]: 99.67 MEQ/L
CHOLESTEROL [3]: 62.33 mg/dL
CREATINE PHOSPHOKINASE [3]: 327.33 u/L
CREATININE [3]: 0.23 mg/dL
GLUCOSE [3]: 148.67 mg/dL
LACTATE DEHYDROGENASE [3]: 429.67 u/L
LIPASE [3]: 10 u/L
PHOSPHORUS [3]: 12.3 mg/dL
POTASSIUM [3]: 6.67 MEQ/L
SODIUM [3]: 140.87 MEQ/L
TOTAL BILIRUBIN [3]: 0.23 mg/dL
TOTAL PROTEIN [3]: 6.2 G/DL
URIC ACID [3]: 1.7 mg/dL
